# Assay results taken from publication PMC10107299, “Neutralizing the Impact of the Virulence Factor LecA from Pseudomonas aeruginosa on Human Cells with New Glycomimetic Inhibitors” (Angewandte Chemie (International Ed. in English), 2023).
# Tests used:
# plasma protein = assay: Plasma protein binding (rapid equilibrium device), human plasma; assay type: in vitro ADME; settings: 1 µM
# Procedure: mixer (Eppendorf). Acetonitrile and caffeine were dispensed using a Mantis Formulatrix. Then samples were centrifuged for 20 min at 2.270 x g at 4 °C and the supernatants were transferred to 96-well Greiner V-bottom plates. Peak areas of each compound and of the internal standard were analyzed using the MultiQuant 3.0 software (AB Sciex). Peak areas of the respective compound were normalized to the internal standard peak area and to the respective peak areas at time point 0 min: (C/D)/(A/B) with A: peak area of the compound at time point 0 min, B: peak area of the internal standard at time point 0 min, C: peak area of the compound at the respective time point, D: peak area of the internal standard at the respective time point. […]
# Assessment of plasma protein binding
# Plasma protein binding was assessed using the rapid equilibrium device (RED) system from ThermoFisher. Compounds were dissolved in DMSO. […]
# high plasma protein binding. Compounds were diluted in murine plasma (from CD-1 mice, pooled) or in human plasma (human donors, both genders, pooled) to a final concentration of 1 µM. Dialysis buffer and plasma samples were added to the respective chambers according the manufacturer’s protocol. The RED plate was sealed with a tape and incubated at 37 °C for 2 hours at 800 rpm on an Eppendorf MixMate vortex-mixer. Then samples were withdrawn from the respective chambers. To 25 µL of each dialysis sample, 25 µL of plasma and to 25 µL of plasma sample, 25 µL of dialysis buffer was added. Then 150 µL ice-cold extraction solvent (ACN/H2O (90:10) containing 12.5 ng/mL caffeine as internal standard) was added. Samples were incubated for 30 min on ice. Then samples were centrifuged at 4 °C at 2270 x g for 10 min.
# Supernatants were transferred to Greiner V-bottom 96-well plates and sealed with a tape. The […]
# percentage of bound compound was calculated as follows:
# (1) % free = (concentration buffer chamber / concentration plasma chamber) *100 […]
# Samples were analyzed using an Agilent 1290 Infinity II HPLC system coupled to an AB Sciex QTrap 6500plus mass spectrometer. LC conditions were as follows: column: Agilent […]
# Zorbax Eclipse Plus C18, 50x2.1 mm, 1.8 µm; temperature: 30 °C; injection volume: 5 µL per […]
# sample; flow rate: 700 µL/min. Samples were run under acidic and buffered conditions.
# Solvents for acidic conditions: A1: water + 0.1% formic acid; solvent B1: 95% acetonitrile/5% […]
# H2O + 0.1% formic acid; solvents for buffered conditions: A2: 95% water + 5% acetonitrile + […]
# 5 mM ammonium acetate + 40 µL/L acetic acid; B2: 95% acetonitrile + 5% water + 5 mM […]
# ammonium acetate + 40 µL/L acetic acid. The same gradient was applied for acidic and […]
# buffered conditions: 99% A at 0 min, 99% A until 1 min, 99% - 0% A from 1 min to 4.0 min, […]
# 0% A until 5.0 min. Mass transitions for controls and compounds are depicted in the following […]
# [1] = In vivo pharmacokinetic study in rats; parameters: species or system Sprague-Dawley rats
# Procedure: Encouraged by these promising in vitro results, an in vivo pharmacokinetic study was conducted for H2 and L2 in mice (1 mg kg^−1, i. v.) and in rats for L2 (10 mg kg^−1, i. v.). Compound concentrations were monitored in plasma and urine (Figure 6). H2 and L2 were cleared from mouse plasma within 1 h. Both compounds rapidly reached high concentrations in urine, several orders of magnitude above their respective in vitro LecA binding affinity. In fact, concentrations above the K ds were detected over the entire observation period of 5 h. […] In rats, higher amounts of L2 were detected both in plasma and urine, not solely corresponding to the 10‐fold increased dose. […] Importantly, high levels of L2 were present in rat urine even 24 h after administration. […]
# Pharmacokinetic studies in rat
# The in vivo part of the study was performed by the CRO Pharmacelsus (Saarbrücken, Germany). For rat in vivo pharmacokinetic studies, male Sprague-Dawley rats (Janvier-Labs, France) with 350 g - 400 g body weight were used. All experimental procedures were approved by and conducted in accordance with the regulations of the local Animal Welfare authorities (Landesamt für Gesundheit und Verbraucherschutz, Abteilung Lebensmittel- und Veterinärwesen, Saarbrücken) and any clinical signs of toxicity and any changes in behavior of the animals were recorded. Food and water were provided ad libitum throughout the study. Rats were provided with a catheter in the jugular vein 2 - 3 days prior to drug administration and blood sampling. According to national animal welfare guidelines, rats were treated once with Carprofen (5 mg/kg) directly after catheterization. Catheter was rinsed daily with K3EDTA. L2 was dissolved in PBS (pH 7.4) and administered i.v. in individual PK studies (N = 3) at 10 mg/kg in a volume of 2 mL/kg. At t = 0 h, rats were placed into metabolic cages for drug administration and immediate collection of urine and faeces samples. Further excretion products were collected during 0 - 2 h, 2 - 4 h, 4 - 8 h and 8 - 24 h. Excreta sample volumes were determined and immediately stored at -80 °C until analysis by LC-MS. 80 µL K3EDTA-treated blood was collected at t = 0.083 h, 0.25 h, 0.5 h, 1 h, 2 h, 4 h, 6 h, 8 h and 24 h post dose and samples were stored on ice until centrifugation (10 minutes at 4500 x g, 4 °C). Plasma was prepared within 45 min after collection, frozen and stored at -80 °C until analysis by LC-MS. […]
# clinical signs observed after dosing.
# Bioanalysis of pharmacokinetic samples from mice and from rat
# First, a calibration curve was prepared by spiking different concentrations of L2 and H2 into mouse plasma, rat plasma or mouse urine (matrix for mouse and rat PK samples) from CD-1 mice. Glipizide was used as an internal standard. In addition, quality control samples (QCs) were prepared for L2 and H2 in plasma and urine. The following extraction procedures were used: 7.5 µl of a plasma sample or 15 µl of a urine sample (calibration samples, QCs or PK samples) was extracted with 35 µl of methanol containing 12.5 ng/ml of glipizide as internal standard for 15 min at 2000 rpm on an Eppendorf MixMate vortex mixer. Then samples were spun down at 15870 x g for 10 min. Supernatants were transferred to standard HPLC-glass vials. Samples from the mouse PK study with H2 in mice and from the rat PK study with L2 were analyzed via HPLC-MS/MS as described in the HPLC-MS analysis section above. PK samples from the mouse PK study with L2 were analyzed using an Agilent 1290 Infinity II HPLC system coupled to an AB Sciex QTrap 7500 mass spectrometer. LC conditions were the same as for the analysis of the samples from the mouse PK study with H2 and from the rat PK study with L2. Mass transitions for controls and compounds are depicted in the following table for the AB Sciex Trap 7500 mass spectrometer.
# Peaks of PK samples were quantified using the calibration curve. The accuracy of the calibration curve was determined using QCs independently prepared on different days. […]
structure (smiles),measurement,setting,value
O=C(CCc1ccc(O[C@@H]2O[C@H](CO)[C@H](O)[C@H](O)[C@H]2O)cc1)Nc1ccc(CCc2ccc(NC(=O)CCc3ccc(O[C@@H]4O[C@H](CO)[C@H](O)[C@H](O)[C@H]4O)cc3)cc2S(=O)(=O)O)c(S(=O)(=O)O)c1 [Compound L2],PPB Human,plasma protein,38.5 ± 12.4%
same,L2 in rat urine,"[1]; 24 h after administration, 10 mg kg^−1 i.v.",high levels
same,half-life,"[1]; male, Sprague-Dawley, iv, rat plasma, 10 mg kg^−1 i.v., N=3",37 ± 12 min
same,AUC,"[1]; male, Sprague-Dawley, iv, rat plasma, 10 mg kg^−1 i.v., read-out: area under the curve (AUC)",19.7 ± 12.8 µM·h
same,MRT,"[1]; male, Sprague-Dawley, iv, rat plasma, 10 mg kg^−1 i.v., read-out: mean residence time (converted)",41 min
same,clearance,"[1]; male, Sprague-Dawley, plasma, iv, rat, 10 mg kg^−1 i.v.",9.84 ± 5 mL/min/kg
same,Vd,"[1]; male, Sprague-Dawley, plasma, iv, rat, 10 mg kg^−1 i.v., read-out: distribution volume VD",0.46 L/kg
same,Time plasma concentration exceeds on-target affinity,"[1]; rat plasma, 10 mg kg^−1 i.v.",at least 6 h
same,Behavior and clinical signs after dosing,"[1]; rat, 10 mg/kg i.v.",normal behavior
